Data published in US12371454B2, “Cyclic peptide compound having Kras inhibitory action” (priority 2019, dated 2025).
Positions of bridges follow the written chain, without caps; N, C: chain ends. Non-standard residues stand in square brackets, D forms with d. Residues, ends and D or L forms follow the SMILES beside them. *: point of attachment. hPhe(3-Cl-4-CF3) = N[C@@H](CCc1ccc(C(F)(F)F)c(Cl)c1)C(=O)O; hPhe(3-F,4-CF3) = N[C@@H](CCc1ccc(C(F)(F)F)c(F)c1)C(=O)O; NMePhe(3-CF3) = CN[C@@H](Cc1cccc(C(F)(F)F)c1)C(=O)O; hPhe(4-CF3) = N[C@@H](CCc1ccc(C(F)(F)F)cc1)C(=O)O; NMePhe(4-Cl) = CN[C@@H](Cc1ccc(Cl)cc1)C(=O)O; NMePhe(2-CN) = CN[C@@H](Cc1ccccc1C#N)C(=O)O; NMePhe(4-Me) = CN[C@@H](Cc1ccc(C)cc1)C(=O)O; NMePhe(2-Cl) = CN[C@@H](Cc1ccccc1Cl)C(=O)O; Phe(3-OMe) = COc1cccc(C[C@H](N)C(=O)O)c1; NMeGly(cPent) = CN[C@H](C(=O)O)C1CCCC1; Phe(3-I) = N[C@@H](Cc1cccc(I)c1)C(=O)O; NMehPhe = CN[C@@H](CCc1ccccc1)C(=O)O; NMeCha = CN[C@@H](CC1CCCCC1)C(=O)O; NMeChg = CN[C@H](C(=O)O)C1CCCCC1; NMeF = CN[C@@H](Cc1ccccc1)C(=O)O; NMeI = CC[C@H](C)[C@H](NC)C(=O)O; hPhe = N[C@@H](CCc1ccccc1)C(=O)O; NMeD = CN[C@@H](CC(=O)O)C(=O)O; NMeL = CN[C@@H](CC(C)C)C(=O)O; Chg = N[C@H](C(=O)O)C1CCCCC1; NMeV = CN[C@H](C(=O)O)C(C)C; d(β3hA) = C[C@@H](N)CC(=O)O; Pip = O=C(O)[C@@H]1CCCCN1; dPip = O=C(O)[C@H]1CCCCN1; Morpholide = C1CN(*)CCO1; NMeA = CN[C@@H](C)C(=O)O; NMeAib = CNC(C)(C)C(=O)O; Nle = CCCC[C@H](N)C(=O)O; Piperidide = C1CCN(*)CC1; Pyrrolidide = C1CCN(*)C1; Ac5c = NC1(C(=O)O)CCCC1; Aze = O=C(O)[C@@H]1CCN1; Isopentyl = CC(C)CC*; Sar = CNCC(=O)O

What follows are compounds tested against T1, Kras and SOS1 (biotin-tagged human Kras loaded with GDP, His-tagged human SOS1) (Homo sapiens, UniProt P01116, G12D) (assay: Protein-protein interaction inhibition between Kras and SOS1 (KrasGl2D-SOS PPI) using AlphaScreen). Conditions: AlphaScreen; biotin-tagged human Kras loaded with GDP, His-tagged human SOS1; read-out: KRAS G12D-SOS PPI IC50.
T1 construct: made in house; host or cells: E. coli (stated for Kras only)
T1 sequence (P01116 1-188 isoform P01116-2 G12D): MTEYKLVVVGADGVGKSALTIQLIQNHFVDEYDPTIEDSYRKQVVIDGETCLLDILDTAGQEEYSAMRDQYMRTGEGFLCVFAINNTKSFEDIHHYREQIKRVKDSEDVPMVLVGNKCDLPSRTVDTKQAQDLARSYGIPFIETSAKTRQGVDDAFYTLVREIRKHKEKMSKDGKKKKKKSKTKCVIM
Type: binding
In short: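 Donor beads (nickel) hold His-SOS1; acceptor beads (streptavidin) hold biotin-Kras bound to GDP. Signal measured at 520-620 nm following 680 nm excitation.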

SMILES | IC50 [nM]
CC[C@H](C)[C@@H]1NC(=O)[C@H](C)N(C)C(=O)C[C@@H](C)NC(=O)[C@H](C(C)C)N(C)C(=O)C2(CCCC2)NC(=O)[C@@H]2CCCN2C(=O)[C@H](CCc2ccc(C(F)(F)F)c(Cl)c2)NC(=O)[C@H]2CCCN2C(=O)[C@H](CC2CCCCC2)N(C)C(=O)[C@@H]2CCCN2C(=O)CN(C)C1=O [Compound 666] (cyclo([Ac5c][NMeV][d(β3hA)][NMeA]I[Sar]P[NMeCha][dP][hPhe(3-Cl-4-CF3)]P)) | 25
CC[C@H](C)[C@@H]1NC(=O)[C@H](CC(C)C)N(C)C(=O)C[C@@H](C(=O)N(C)C)N(C)C(=O)[C@H]([C@@H](C)CC)N(C)C(=O)[C@H](C(C)C)NC(=O)[C@H](C)N(C)C(=O)[C@H](CCc2ccc(C(F)(F)F)c(Cl)c2)NC(=O)CN(C)C(=O)[C@H](Cc2ccc(C)cc2)N(C)C(=O)[C@@H]2CCN2C(=O)[C@H](C)N(C)C1=O [Compound 4] ([NMeL]I[NMeA][Aze][NMePhe(4-Me)][Sar][hPhe(3-Cl-4-CF3)][NMeA]V[NMeI][NMeD]-NMe2; lactam N-11) | 13
CC(C)C[C@H]1C(=O)N[C@@H](C2CCCCC2)C(=O)N(C)CC(=O)N(C)CC(=O)N(C)[C@@H](CC2CCCCC2)C(=O)N(C)CC(=O)N[C@@H](CCc2ccc(C(F)(F)F)c(Cl)c2)C(=O)N2CCC[C@H]2C(=O)NC2(CCCC2)C(=O)N(C)[C@@H](C(C)C)C(=O)N[C@H](C)CC(=O)N1C [Compound 937] (cyclo([Ac5c][NMeV][d(β3hA)][NMeL][Chg][Sar][Sar][NMeCha][Sar][hPhe(3-Cl-4-CF3)]P)) | 250
CC[C@H](C)[C@@H]1NC(=O)[C@H](CC(C)C)N(C)C(=O)C[C@@H](C(=O)N2CCCCC2)N(C)C(=O)[C@H](CC(C)C)NC(=O)C(C)(C)N(C)C(=O)[C@H](CCc2ccccc2)NC(=O)[C@H](Cc2cccc(I)c2)NC(=O)CN(C)C(=O)[C@H](Cc2ccc(C)cc2)N(C)C(=O)CN(C)C(=O)CN(C)C1=O [Compound 13] ([NMeL]I[Sar][Sar][NMePhe(4-Me)][Sar][Phe(3-I)][hPhe][NMeAib]L[NMeD]-Piperidide; lactam N-11) | 38
CC[C@H](C)[C@@H]1NC(=O)[C@H](CC(C)C)N(C)C(=O)C[C@@H](C(=O)N(C)C)N(C)C(=O)[C@H](C2CCCC2)N(C)C(=O)[C@H](C(C)C)NC(=O)[C@H](C)N(C)C(=O)[C@H](CCc2ccc(C(F)(F)F)c(Cl)c2)NC(=O)CN(C)C(=O)[C@H](CC2CCCCC2)N(C)C(=O)[C@@H]2CCN2C(=O)[C@H](C)N(C)C1=O [Compound 102] ([NMeL]I[NMeA][Aze][NMeCha][Sar][hPhe(3-Cl-4-CF3)][NMeA]V[NMeGly(cPent)][NMeD]-NMe2; lactam N-11) | 11
CC[C@H](C)[C@@H]1NC(=O)[C@H](CC(C)C)N(C)C(=O)C[C@@H](C(=O)N(C)C)N(C)C(=O)[C@H](C2CCCC2)N(C)C(=O)C2(CCCC2)NC(=O)[C@@H]2CCCN2C(=O)[C@H](CCc2ccc(C(F)(F)F)c(Cl)c2)NC(=O)CN(C)C(=O)[C@H](Cc2ccc(C)cc2)N(C)C(=O)CN(C)C(=O)CN(C)C1=O [Compound 1779] ([NMeL]I[Sar][Sar][NMePhe(4-Me)][Sar][hPhe(3-Cl-4-CF3)]P[Ac5c][NMeGly(cPent)][NMeD]-NMe2; lactam N-11) | 0.52
CC[C@H](C)[C@@H]1NC(=O)[C@@H]2CCCCN2C(=O)C[C@@H](C)NC(=O)[C@H](CC(C)C)N(C)C(=O)C2(CCCC2)NC(=O)[C@H](CC(C)C)N(C)C(=O)[C@H](CCc2ccc(C(F)(F)F)cc2)NC(=O)CN(C)C(=O)[C@H](Cc2ccc(Cl)cc2)N(C)C(=O)CN(C)C(=O)CN(C)C1=O [Compound 847] (cyclo([Ac5c][NMeL][d(β3hA)][Pip]I[Sar][Sar][NMePhe(4-Cl)][Sar][hPhe(4-CF3)][NMeL])) | 54
CC[C@H](C)[C@@H]1NC(=O)[C@H](C)N(C)C(=O)C[C@@H](C(=O)N2CCCC2)NC(=O)[C@H](CC(C)C)N(C)C(=O)[C@H](Cc2ccccc2)N(C)C(=O)[C@H](COCCC(C)C)NC(=O)[C@H](CCc2ccc(C(F)(F)F)cc2)NC(=O)CN(C)C(=O)[C@H](Cc2ccc(Cl)cc2)N(C)C(=O)CN(C)C(=O)CN(C)C1=O [Compound 1119] ([NMeA]I[Sar][Sar][NMePhe(4-Cl)][Sar][hPhe(4-CF3)]S(Isopentyl)[NMeF][NMeL]D-Pyrrolidide; lactam N-11) | 180
CC[C@H](C)[C@@H]1NC(=O)[C@H](CC(C)C)N(C)C(=O)C[C@@H](C(=O)N2CCOCC2)N(C)C(=O)[C@H](C2CCCCC2)N(C)C(=O)C2(CCCC2)NC(=O)[C@@H]2CCCN2C(=O)[C@H](CCc2ccc(C(F)(F)F)c(Cl)c2)NC(=O)CN(C)C(=O)[C@H](CC2CCCCC2)N(C)C(=O)CN(C)C(=O)CN(C)C1=O [Compound 1333] ([NMeL]I[Sar][Sar][NMeCha][Sar][hPhe(3-Cl-4-CF3)]P[Ac5c][NMeChg][NMeD]-Morpholide; lactam N-11) | 0.48
CC[C@H](C)[C@@H]1NC(=O)[C@H](C)N(C)C(=O)C[C@@H](C(=O)N2CCCC2)NC(=O)[C@H](CC(C)C)N(C)C(=O)[C@H](Cc2ccccc2)N(C)C(=O)[C@H](CC(C)C)NC(=O)[C@H](Cc2cccc(I)c2)NC(=O)CN(C)C(=O)[C@H](Cc2ccc(Cl)cc2)N(C)C(=O)CN(C)C(=O)CN(C)C1=O [Compound 884] ([NMeA]I[Sar][Sar][NMePhe(4-Cl)][Sar][Phe(3-I)]L[NMeF][NMeL]D-Pyrrolidide; lactam N-11) | 63
CC[C@H](C)[C@@H]1NC(=O)[C@H](CC(C)C)N(C)C(=O)C[C@@H](C)NC(=O)[C@H](CC(C)C)N(C)C(=O)C2(CCCC2)NC(=O)[C@@H]2CCN2C(=O)[C@H](CCc2ccc(C(F)(F)F)c(F)c2)NC(=O)CN(C)C(=O)[C@H](CC2CCCCC2)N(C)C(=O)CN(C)C(=O)CN(C)C1=O [Compound 1545] (cyclo([Ac5c][NMeL][d(β3hA)][NMeL]I[Sar][Sar][NMeCha][Sar][hPhe(3-F,4-CF3)][Aze])) | 42
CCCC[C@@H]1NC(=O)[C@H](Cc2cccc(OC)c2)NC(=O)CN(C)C(=O)[C@H](Cc2ccc(Cl)cc2)N(C)C(=O)CN(C)C(=O)CN(C)C(=O)[C@H]([C@@H](C)CC)NC(=O)[C@H](CC(C)C)N(C)C(=O)C[C@@H](C(=O)N2CCCC2)N(C)C(=O)[C@H](CC(C)C)NC(=O)C(C)(C)N(C)C1=O [Compound 1412] ([NMeL]I[Sar][Sar][NMePhe(4-Cl)][Sar][Phe(3-OMe)][Nle][NMeAib]L[NMeD]-Pyrrolidide; lactam N-11) | 310
CC[C@H](C)[C@@H]1NC(=O)[C@H](CC(C)C)N(C)C(=O)C[C@@H](C(=O)N(C)C)N(C)C(=O)[C@H](C2CCCC2)N(C)C(=O)C2(CCCC2)NC(=O)[C@H](Cc2ccccc2Cl)N(C)C(=O)[C@H](CCc2ccc(C(F)(F)F)c(Cl)c2)NC(=O)CN(C)C(=O)[C@H](CC2CCCCC2)N(C)C(=O)[C@@H]2CCN2C(=O)[C@H](C)N(C)C1=O [Compound 1009] ([NMeL]I[NMeA][Aze][NMeCha][Sar][hPhe(3-Cl-4-CF3)][NMePhe(2-Cl)][Ac5c][NMeGly(cPent)][NMeD]-NMe2; lactam N-11) | 43
CC[C@H](C)[C@@H]1NC(=O)[C@H](C)N(C)C(=O)C[C@@H](C(=O)N2CCCCC2)N(C)C(=O)[C@H](C(C)C)N(C)C(=O)C2(CCCC2)NC(=O)[C@@H]2CCCN2C(=O)[C@H](CCc2ccc(C(F)(F)F)c(Cl)c2)NC(=O)[C@H]2CCCCN2C(=O)[C@H](CC2CCCCC2)N(C)C(=O)[C@@H]2CCN2C(=O)CN(C)C1=O [Compound 553] ([NMeA]I[Sar][Aze][NMeCha][dPip][hPhe(3-Cl-4-CF3)]P[Ac5c][NMeV][NMeD]-Piperidide; lactam N-11) | 27
CC[C@H](C)[C@@H]1NC(=O)[C@H](CC(C)C)N(C)C(=O)C[C@@H](C)NC(=O)[C@H](C(C)C)N(C)C(=O)C2(CCCC2)NC(=O)[C@@H]2CCCN2C(=O)[C@H](CCc2ccc(C(F)(F)F)c(Cl)c2)NC(=O)CN(C)C(=O)[C@H](Cc2ccccc2C#N)N(C)C(=O)CN(C)C(=O)CN(C)C1=O [Compound 767] (cyclo([Ac5c][NMeV][d(β3hA)][NMeL]I[Sar][Sar][NMePhe(2-CN)][Sar][hPhe(3-Cl-4-CF3)]P)) | 24
CC[C@H](C)[C@@H]1NC(=O)[C@H](CC(C)C)N(C)C(=O)C[C@@H](C(=O)N2CCCCC2)N(C)C(=O)[C@H](C(C)C)NC(=O)C2(CCCC2)NC(=O)[C@@H]2CCCN2C(=O)[C@H](CCc2ccc(C(F)(F)F)c(Cl)c2)NC(=O)CN(C)C(=O)[C@H](CC2CCCCC2)N(C)C(=O)[C@@H]2CCN2C(=O)[C@H](C)N(C)C1=O [Compound 1106] ([NMeL]I[NMeA][Aze][NMeCha][Sar][hPhe(3-Cl-4-CF3)]P[Ac5c]V[NMeD]-Piperidide; lactam N-11) | 35
CC[C@H](C)[C@@H]1NC(=O)[C@H](C)N(C)C(=O)C[C@@H](C(=O)N2CCCC2)NC(=O)[C@H](CC(C)C)N(C)C(=O)[C@H](CCc2ccccc2)N(C)C(=O)[C@H](CC(C)C)NC(=O)[C@H](CCc2ccc(C(F)(F)F)cc2)NC(=O)CN(C)C(=O)[C@H](Cc2ccc(Cl)cc2)N(C)C(=O)CN(C)C(=O)CN(C)C1=O [Compound 878] ([NMeA]I[Sar][Sar][NMePhe(4-Cl)][Sar][hPhe(4-CF3)]L[NMehPhe][NMeL]D-Pyrrolidide; lactam N-11) | 320
CC(C)C[C@H]1C(=O)N[C@@H](C(C)C)C(=O)N(C)CC(=O)N(C)CC(=O)N(C)[C@@H](CC2CCCCC2)C(=O)N(C)CC(=O)N[C@@H](CCc2ccc(C(F)(F)F)c(Cl)c2)C(=O)N2CCC[C@H]2C(=O)NC2(CCCC2)C(=O)N(C)[C@@H](CC(C)C)C(=O)N[C@H](C)CC(=O)N1C [Compound 1452] (cyclo([Ac5c][NMeL][d(β3hA)][NMeL]V[Sar][Sar][NMeCha][Sar][hPhe(3-Cl-4-CF3)]P)) | 38
CCCC[C@@H]1NC(=O)[C@H](Cc2cccc(I)c2)NC(=O)CN(C)C(=O)[C@H](Cc2ccc(Cl)cc2)N(C)C(=O)CN(C)C(=O)CN(C)C(=O)[C@H]([C@@H](C)CC)NC(=O)[C@H](CC(C)C)N(C)C(=O)C[C@@H](C(=O)N2CCCCC2)N(C)C(=O)[C@H](CC(C)C)NC(=O)[C@H](Cc2cccc(C(F)(F)F)c2)N(C)C1=O [Compound 1052] ([NMeL]I[Sar][Sar][NMePhe(4-Cl)][Sar][Phe(3-I)][Nle][NMePhe(3-CF3)]L[NMeD]-Piperidide; lactam N-11) | 110
